Results: patent publication US6514988B1, “Condensed-ring thiophene derivatives, their production and use” (Takeda Chemical Industries, Ltd., priority 1994, dated 2003)
Where a name gives a salt, the structure may show the parent alone. Read-outs that look alike come from different tables or passages of the source.

Key:
[1] = system: male ICR mice; conditions: 30 mg per 1 kg orally once a day during 3 days, plasma at 24 hours after administration, p<0.05
Protocol: The solution was administered oraly once a day during successive 3 days to male ICR mice (10-week old, n=12). The dosage was 30 mg per 1 kg of body weight. ICR mice administered with vehicle alone were used as control (n=15). At 24 hours after the administration, blood was collected from jugular vein under anesthesia with ether. To the blood were immediately added ethylenediamine tetracetate (EDTA) at a final concentration of 3 mg/ml and aprotinin at a final concentration of 300 KIU/ml. The mixture was centrifuged for 15 minutes at 3000×g, and the concentration of testosterone in the plasma was measured by the radio immunoassay.
The rate of testosterone suppression (%) of the test compound was determined by the formula; 100−(concentration of plasma testosterone in the test group)/(concentration of plasma testosterone in the control group)×100.

[2] = system: male SD rats; assay: Suppression of testosterone concentration in rat plasma; type: in vivo; conditions: 30 mg per 1 kg once subcutaneously, plasma at 24 hours after administration, p<0.05
Protocol: The compound 15 produced in Working Example 9 was dissolved in vehicle I (20% propylene glycol-80% physiological saline). The solution was administered once subcutaneously to male SD rats (8-week old, n=5). […] Animals administered with the vehicle alone were used as control.

[3] = system: primary cultured cells of rat pituitary anterior lobes; assay: Inhibition of LH/FSH secretion by primary cultured cells of rat pituitary anterior lobes; type: cell-based; conditions: 100 μl of 20 μM compound solution + 100 μl of 5 nM GnRH in 800 μl medium, 37° C. for 3 hours
Protocol: Anterior lobes of pituitary glands from 40 Wistar rats (8-week old, male) was put into a petri dish containing buffer A (0.7 mM sodium dihydrogen phosphate, 137 mM sodium chloride, 5 mM potassium chloride, 25 mM HEPES, 50 μg/ml gentamicin sulfate), which was once washed with the buffer A, then the anterior lobes were divided into four portions, followed by further washing twice. […] The concentrations of […] and FSH in the supernatant were determined by using the radio immunoassay kit (Amersham Inc.).
By calculating in accordance with the formula; 100−(LH or FSH concentration in the presence of the compound)/(LH or FSH concentration of the control culture)×100, the inhibiting rate (%) of LH or FSH secretion by each compound was determined. […]

CCC(=O)Nc1ccc(-c2sc3c(c2CN(C)Cc2ccccc2)c(=O)c(C(=O)c2ccccc2)cn3Cc2c(F)cccc2F)cc1 [Working Example 56, 5-Benzoyl-7-(2,6-difluorobenzyl)-4,7-dihydro-3-(N-methyl-N-benzylaminomethyl)-2-(4-propionylamidophenyl)-4-oxothieno[2,3-b]pyridine]
rate of testosterone suppression (%) [1]: 85±9.7%

CCOC(=O)c1cn(Cc2ccccc2OC)c2sc(-c3ccc(OC)cc3)c(CN(C)Cc3ccccc3)c2c1=O (as salt: hydrochloride) [3-(N-benzyl-N-methylaminomethyl)-4,7-dihydro-7-(2-methoxybenzyl)-2-(4-methoxyphenyl)-4-oxothieno[2,3-b]pyridine-5-carboxylic acid ethyl ester]
melting point: 147 to 152 °C

CCOC(=O)c1cn(Cc2ccccc2OC)c2sc(-c3ccc(OC)cc3)c(CN(C)Cc3ccccc3)c2c1=O [3-(N-benzyl-N-methylaminomethyl)-4,7-dihydro-7-(2-methoxybenzyl)-2-(4-methoxyphenyl)-4-oxothieno[2,3-b]pyridine-5-carboxylic acid ethyl ester]
rate of testosterone suppression (%) [2]: 38±9.7%
inhibition at 20 µM (stock) ([3]; p<0.01, n=3, read-out: inhibiting rate (%) of FSH secretion): 20 ± 10%
inhibition at 20 µM (stock) ([3]; p<0.01, n=3, read-out: inhibiting rate (%) of LH secretion): 28 ± 9%
